# Measurements published in patent US11186564B2, “Dual NAV1.2/5HT2a inhibitors for treating CNS disorders” (Sunovion Pharmaceuticals Inc., priority 2016, dated 2021).
# Where two headings read alike, the source gives them in different places.
# What was measured:
# [1] = target: human sodium channel NaV1.2 (Homo sapiens, UniProt Q99250); test: NaV1.2 inhibition, automated patch-clamp (Q-Patch HTX), slow inactivated state (state C); assay type: cell-based; conditions: hNaV1.2 CHO cells, slow inactivated state; for inhibition at 1 µM: 1 μM compound, read-out: NaV1.2 (% inh), 1 μM; for IC50: read-out: NaV1.2 IC50; for inhibition at 10 µM: 10 μM compound, read-out: NaV1.2 (% inh), 10 μM
# How it was run: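 IC50 comes from a least-squares fit of percent inhibition, relative to vehicle, of current in the slow-inactivated state. That state is reached by a 10 s prepulse to −50 mV, then 15 ms at −90 mV, then a 5 ms test pulse to 0 mV. Human NaV1.2 in stable CHO K-1 cells, held at −100 mV, automated patch clamp.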
# [2] = target: T1, recombinant human serotonin receptor 5-HT2A (Homo sapiens, UniProt P28223); test: 5-HT2A antagonist Ca2+ assay in CHO-K1 cells (method A aequorin luminescence / method B FLIPR fluorescence); assay type: cell-based; conditions: antagonist mode vs EC80 of reference agonist, method A or B
# T1 construct: expressed in transfected cells; method B: loaded with Ca2+ dye
# How it was run: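 IC50 was obtained by nonlinear regression of percent inhibition of the EC80 agonist Ca2+ response in CHO-K1 cells stably expressing human 5-HT2A. The readout was aequorin luminescence with agonist injected 15 min after compound (A), or Ca2+-dye fluorescence on FLIPR with serotonin as agonist (B).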
# human sodium channel NaV1.2, sequence (Q99250 whole entry): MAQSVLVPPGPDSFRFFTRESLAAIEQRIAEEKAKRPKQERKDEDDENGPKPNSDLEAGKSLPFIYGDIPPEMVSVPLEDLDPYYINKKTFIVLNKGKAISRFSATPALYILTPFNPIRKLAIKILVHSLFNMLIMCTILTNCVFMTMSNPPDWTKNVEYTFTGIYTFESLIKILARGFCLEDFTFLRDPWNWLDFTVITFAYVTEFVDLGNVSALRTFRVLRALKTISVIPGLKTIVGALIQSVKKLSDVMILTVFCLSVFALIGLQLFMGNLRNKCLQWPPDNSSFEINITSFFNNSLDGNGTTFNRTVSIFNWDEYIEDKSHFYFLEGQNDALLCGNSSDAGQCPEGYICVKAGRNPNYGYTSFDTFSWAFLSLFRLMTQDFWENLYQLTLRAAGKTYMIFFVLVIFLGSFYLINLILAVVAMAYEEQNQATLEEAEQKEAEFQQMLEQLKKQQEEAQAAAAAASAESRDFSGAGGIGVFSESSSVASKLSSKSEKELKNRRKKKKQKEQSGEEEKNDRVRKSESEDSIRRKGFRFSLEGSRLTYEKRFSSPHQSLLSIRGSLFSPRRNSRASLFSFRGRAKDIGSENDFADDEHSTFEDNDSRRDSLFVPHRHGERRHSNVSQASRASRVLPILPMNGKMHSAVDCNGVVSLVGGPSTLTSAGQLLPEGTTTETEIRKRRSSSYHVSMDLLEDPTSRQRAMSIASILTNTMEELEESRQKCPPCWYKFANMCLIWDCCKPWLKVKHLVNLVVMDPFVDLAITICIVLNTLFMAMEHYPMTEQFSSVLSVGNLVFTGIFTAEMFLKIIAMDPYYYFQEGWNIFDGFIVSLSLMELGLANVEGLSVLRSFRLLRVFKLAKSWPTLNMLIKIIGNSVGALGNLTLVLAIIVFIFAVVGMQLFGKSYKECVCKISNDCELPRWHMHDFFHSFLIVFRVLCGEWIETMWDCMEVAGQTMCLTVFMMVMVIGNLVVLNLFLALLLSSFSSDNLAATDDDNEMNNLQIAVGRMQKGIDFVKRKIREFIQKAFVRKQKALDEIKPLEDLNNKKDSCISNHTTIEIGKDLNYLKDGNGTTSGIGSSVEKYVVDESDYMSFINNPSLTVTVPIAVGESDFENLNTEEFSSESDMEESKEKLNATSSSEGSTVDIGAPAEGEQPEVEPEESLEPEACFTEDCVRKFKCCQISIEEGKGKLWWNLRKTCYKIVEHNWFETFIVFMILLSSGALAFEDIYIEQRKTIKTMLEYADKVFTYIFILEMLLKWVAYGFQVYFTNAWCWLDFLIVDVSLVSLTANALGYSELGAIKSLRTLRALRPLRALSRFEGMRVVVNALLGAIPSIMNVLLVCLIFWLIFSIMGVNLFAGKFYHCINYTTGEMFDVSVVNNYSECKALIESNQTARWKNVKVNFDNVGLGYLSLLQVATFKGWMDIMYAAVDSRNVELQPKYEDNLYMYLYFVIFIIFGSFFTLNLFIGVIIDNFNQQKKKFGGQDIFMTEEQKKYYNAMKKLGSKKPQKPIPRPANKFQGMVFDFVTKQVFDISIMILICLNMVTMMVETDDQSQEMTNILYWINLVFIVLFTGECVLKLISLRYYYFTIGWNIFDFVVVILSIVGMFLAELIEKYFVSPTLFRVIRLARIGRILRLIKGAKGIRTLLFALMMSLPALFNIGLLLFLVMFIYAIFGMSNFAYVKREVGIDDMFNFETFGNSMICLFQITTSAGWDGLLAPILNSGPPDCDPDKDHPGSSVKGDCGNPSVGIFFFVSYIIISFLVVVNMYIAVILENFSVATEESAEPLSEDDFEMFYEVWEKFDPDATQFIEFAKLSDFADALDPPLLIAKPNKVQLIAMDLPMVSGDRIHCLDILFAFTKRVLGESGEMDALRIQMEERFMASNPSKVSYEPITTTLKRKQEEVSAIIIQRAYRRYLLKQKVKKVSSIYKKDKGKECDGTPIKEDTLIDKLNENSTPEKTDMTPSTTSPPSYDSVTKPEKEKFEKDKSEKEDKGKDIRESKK
# T1 sequence (P28223 whole entry): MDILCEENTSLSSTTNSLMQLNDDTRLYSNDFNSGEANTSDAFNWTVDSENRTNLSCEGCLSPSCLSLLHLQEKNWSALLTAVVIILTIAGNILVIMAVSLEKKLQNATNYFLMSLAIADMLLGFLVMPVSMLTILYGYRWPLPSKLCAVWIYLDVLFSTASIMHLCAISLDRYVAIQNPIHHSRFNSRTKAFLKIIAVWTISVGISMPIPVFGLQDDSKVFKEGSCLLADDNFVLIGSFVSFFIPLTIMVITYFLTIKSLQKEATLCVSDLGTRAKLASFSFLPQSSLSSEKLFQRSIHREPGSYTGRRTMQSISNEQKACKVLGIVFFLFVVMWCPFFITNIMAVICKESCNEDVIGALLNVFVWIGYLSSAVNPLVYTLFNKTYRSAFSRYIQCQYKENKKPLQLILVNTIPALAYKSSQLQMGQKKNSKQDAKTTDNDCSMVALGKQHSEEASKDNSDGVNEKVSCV
Structure (SMILES),inhibition at 1 µM [1] [%],IC50 ([2]; read-out: 5HT2A IC50) [µM],IC50 [1] [nM],"IC50 ([2]; 5HT2A IC50, μM) [µM]",inhibition at 10 µM [1] [%]
"CN1Cc2ccccc2C(CCN2CCC(Oc3ccc(F)cc3)CC2)C1 (stereo not drawn) [Example 180, 4-(2-(4-(4-fluorophenoxy)piperidin-1-yl)ethyl)-2-methyl-1,2,3,4-tetrahydroisoquinoline]",8,0.32,–,–,–
"COc1ccccc1O[C@@H]1CCN(CCC2CCOc3ccccc32)[C@@H](C)C1 (stereo partly drawn) [Example 182, (2S,4R)-1-(2-(chroman-4-yl)ethyl)-4-(2-methoxyphenoxy)-2-methylpiperidine]",52,0.2,–,–,–
"Fc1ccc(OC2CCN(CCC3CCOc4ccccc43)CC2)cc1 (stereo not drawn) [Example 183, 1-(2-(chroman-4-yl)ethyl)-4-(4-fluorophenoxy)piperidine]",–,0.04,1590,–,–
"Fc1ccc(OC2CCN(CCC3COCc4ccccc43)CC2)cc1 (stereo not drawn) [Example 184, 4-(4-fluorophenoxy)-1-(2-(isochroman-4-yl)ethyl)piperidine]",35,0.08,–,–,–
"O=C1Cc2ccccc2N1CCN1CCC(Oc2ccc(F)cc2)CC1 [Example 185, 1-(2-(4-(4-fluorophenoxy)piperidin-1-yl)ethyl)indolin-2-one]",19,–,–,0.01,–
"O=C1c2cccnc2CN1CCN1CCC(Oc2ccc(F)cc2)CC1 [Example 186, 6-(2-(4-(4-fluorophenoxy)piperidin-1-yl)ethyl)-6,7-dihydro-5H-pyrrolo[3,4-b]pyridin-5-one]",-3,0.01,–,–,–
"O=C1c2ccccc2CN1CCN1CCC(Oc2ccc(F)cc2)CC1 [Example 187, 2-(2-(4-(4-fluorophenoxy)piperidin-1-yl)ethyl)isoindolin-1-one]",14,0.07,–,–,–
"O=C1c2ccc(F)cc2CN1CCN1CCC(Oc2ccc(F)cc2)CC1 [Example 188, 5-fluoro-2-(2-(4-(4-fluorophenoxy)piperidin-1-yl)ethyl)isoindolin-1-one]",32,0.05,–,–,–
"O=C1c2cc(Cl)ccc2CN1CCN1CCC(Oc2ccc(F)cc2)CC1 [Example 189, 6-chloro-2-(2-(4-(4-fluorophenoxy)piperidin-1-yl)ethyl)isoindolin-1-one]",0,0.18,–,–,–
"O=C1CCc2ccccc2N1CCN1CCC(Oc2ccc(F)cc2)CC1 [Example 190, 1-(2-(4-(4-fluorophenoxy)piperidin-1-yl)ethyl)-3,4-dihydroquinolin-2(1H)-one]",25,0.01,–,–,–
"O=C1c2ccccc2CCN1CCN1CCC(Oc2ccccc2)CC1 [Example 191, 2-(2-(4-phenoxypiperidin-1-yl)ethyl)-3,4-dihydroisoquinolin-1(2H)-one]",18,0.05,–,–,52
"O=C1c2ccccc2CCN1CCN1CCC(Oc2cccnc2)CC1 [Example 192, 2-(2-(4-(pyridin-3-yloxy)piperidin-1-yl)ethyl)-3,4-dihydroisoquinolin-1(2H)-one]",–,2.84,–,–,15
"O=C1c2ccccc2CCN1CCN1CCC(Oc2cccc(F)c2)CC1 [Example 193, 2-(2-(4-(3-fluorophenoxy)piperidin-1-yl)ethyl)-3,4-dihydroisoquinolin-1(2H)-one]",–,0.33,–,–,66
"O=C1c2ccccc2CCN1CCN1CCC(Oc2cccc(Cl)c2)CC1 [Example 194, 2-(2-(4-(3-chlorophenoxy)piperidin-1-yl)ethyl)-3,4-dihydroisoquinolin-1(2H)-one]",–,0.11,230,–,–
"COc1cccc(OC2CCN(CCN3CCc4ccccc4C3=O)CC2)c1 [Example 195, 2-(2-(4-(3-methoxyphenoxy)piperidin-1-yl)ethyl)-3,4-dihydroisoquinolin-1(2H)-one]",–,0.26,1500,–,–
"COCc1cccc(OC2CCN(CCN3CCc4ccccc4C3=O)CC2)c1 [Example 196, 2-(2-(4-(3-(methoxymethyl)phenoxy)piperidin-1-yl)ethyl)-3,4-dihydroisoquinolin-1(2H)-one]",–,0.36,–,–,67
